From ChEMBL document CHEMBL1201862, “PubChem BioAssay data set” (2004)
Calls of active or inactive are those of the source.

Assays:
[1] = A cytotoxicity screen of small molecule inhibitors of the PhoP region in Salmonella typhi identified in the primary screen. [Related pubchem assays: 1850, 1864, 1985 ]; assay type: functional
Aspartyl aminopeptidase [2] = target: T1, Aspartyl aminopeptidase (Plasmodium falciparum 3D7, UniProt Q8I2J3); test: Counterscreen for inhibitors of M1 and M17 aminopeptidases: QFRET-based biochemical high throughput dose response assay for inhibitors of the Plasmodium falciparum M18 Aspartyl Aminopeptidase (PFM18AAP). [Related PubChem assays: 1619 (Screening assay (M17LAP inhibitors).), 1445 (Screening assay (M1AAP inhibitors).)]
T1 sequence (Q8I2J3 whole entry): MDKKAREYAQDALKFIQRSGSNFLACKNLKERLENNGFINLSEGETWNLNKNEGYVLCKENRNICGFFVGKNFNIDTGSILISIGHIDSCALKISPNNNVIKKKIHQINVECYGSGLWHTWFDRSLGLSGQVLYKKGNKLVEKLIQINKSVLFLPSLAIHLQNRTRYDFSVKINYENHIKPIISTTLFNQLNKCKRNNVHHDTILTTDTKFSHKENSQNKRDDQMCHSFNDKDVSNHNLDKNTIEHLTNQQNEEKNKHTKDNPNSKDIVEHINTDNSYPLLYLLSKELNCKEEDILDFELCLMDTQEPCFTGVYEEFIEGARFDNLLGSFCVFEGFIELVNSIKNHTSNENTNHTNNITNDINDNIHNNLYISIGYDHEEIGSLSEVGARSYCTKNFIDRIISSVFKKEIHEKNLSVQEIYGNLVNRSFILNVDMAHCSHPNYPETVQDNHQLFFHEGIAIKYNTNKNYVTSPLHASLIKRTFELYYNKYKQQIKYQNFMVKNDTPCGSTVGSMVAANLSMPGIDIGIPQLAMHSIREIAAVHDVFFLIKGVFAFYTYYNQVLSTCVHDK

Procathepsin L [3] = target: T2, Procathepsin L (Homo sapiens, UniProt P07711); test: cathepsin L inhibitors, dose response, counter-screen for M1/M17 aminopeptidase inhibitor project, biochemical, QFRET, 1536-well (AID 2214)
Leucine aminopeptidase = target: T3, Leucine aminopeptidase (Plasmodium falciparum 3D7, UniProt Q8IL11); test: P. falciparum M17LAP inhibitors, primary screen, biochemical, fluorogenic H-Leu-NHMec substrate, 1536-well (AID 1619); assay type: functional
T3 sequence (Q8IL11 whole entry): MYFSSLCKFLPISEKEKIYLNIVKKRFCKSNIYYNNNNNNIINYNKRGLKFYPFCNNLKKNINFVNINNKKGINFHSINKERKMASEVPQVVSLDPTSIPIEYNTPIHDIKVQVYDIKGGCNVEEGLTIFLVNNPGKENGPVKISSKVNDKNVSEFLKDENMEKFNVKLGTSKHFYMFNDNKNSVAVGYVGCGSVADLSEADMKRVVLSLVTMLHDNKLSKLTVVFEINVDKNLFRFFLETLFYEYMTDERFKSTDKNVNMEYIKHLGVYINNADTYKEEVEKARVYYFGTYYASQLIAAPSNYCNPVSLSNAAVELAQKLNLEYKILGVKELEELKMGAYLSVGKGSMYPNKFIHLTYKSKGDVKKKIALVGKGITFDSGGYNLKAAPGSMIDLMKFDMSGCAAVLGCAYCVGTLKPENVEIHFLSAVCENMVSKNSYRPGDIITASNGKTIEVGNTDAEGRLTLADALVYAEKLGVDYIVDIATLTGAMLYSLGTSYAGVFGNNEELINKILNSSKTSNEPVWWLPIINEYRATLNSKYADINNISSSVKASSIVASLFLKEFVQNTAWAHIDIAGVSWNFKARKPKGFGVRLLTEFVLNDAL

[4] = growth suppression of PTEN-null colon cells, dose response, cell-based, HCT116 PTEN knockout (AID 1047); assay type: functional;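 further: HCT116 colon tumor cells with PTEN knocked out; cells exposed to compound for 60 hours before readout; potency for loss of cell viability measured by luminescence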
[5] = Luminescence Cell-Based Dose Response HTS to Identify Inhibitors of 5'UTR Stem-Loop Driven Prion Protein mRNA Translation in H4 Neuroglioblastoma Cells. [Related pubchem assays: 1827 (Project Summary), 1813 (Primary HTS)]; assay type: functional
[6] = growth suppression of beta-catenin-knockout colon cells, dose response, cell-based, HCT116, human colon tumor (AID 1045); assay type: functional;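 further: HCT116 colon tumor cells with beta catenin knocked out; cells exposed to compound for 60 hours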
Cytochrome P450 2D6 = Cytochrome P450 2D6 (Homo sapiens, UniProt P10635);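 further: CYP2D6 member of a cytochrome P450 panel assay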
Cytochrome P450 2C9 = Cytochrome P450 2C9 (Homo sapiens, UniProt P11712)
[7] = cytotoxicity in HPDE-C7 cells, cell-based, fluorescence, HTS (AID 430); assay type: functional; details: Homo sapiens
[8] = HepG2 cell cytotoxicity, dose response, cytotoxicity control for Shn3 inhibitor project, CellTiter-Glo, cherry-picked (AID 624134); assay type: functional, cell-based
[9] = Shn3 3'UTR reporter inhibitors, dose response, cell-based, Clone20 osteoblasts, firefly luciferase, cherry-picked (AID 624132); assay type: functional;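 further: firefly luciferase luminescence from reporter carrying the Shn3 3'UTR in osteoblasts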
[10] = target: T4, Ubiquitin-conjugating enzyme E2 N (Homo sapiens, UniProt P61088); assay type: functional;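 further: Dose-response confirmation in a TR-FRET assay detecting UBC13-driven polyubiquitin chain formation, inhibition measured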
T4 sequence (P61088 whole entry): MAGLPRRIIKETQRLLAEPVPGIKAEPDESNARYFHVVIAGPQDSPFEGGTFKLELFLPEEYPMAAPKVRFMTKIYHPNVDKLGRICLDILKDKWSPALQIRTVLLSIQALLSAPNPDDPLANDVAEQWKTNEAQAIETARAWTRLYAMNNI

[11] = inhibitors of SNCA 5'UTR-driven reporter translation, confirmation, H4 neuroglioma cells, luminescence (AID 1988); assay type: functional, cell-based
[12] = cytotoxicity in KRAS-transformed pancreatic duct cells, primary screen, cell-based, fluorescence, HTS (AID 431); assay type: functional; details: Homo sapiens;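 further: cell line used: HPDE-C7K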
[13] = inhibitors of firefly luciferase expression or activity, dose response, H4 neuroglioma cells, luminescence (AID 1990); assay type: functional, cell-based
Cytochrome P450 3A4 = Cytochrome P450 3A4 (Homo sapiens, UniProt P08684);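 further: CYP3A4 tested as one member of a cytochrome P450 panel screen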
Cytochrome P450 2C19 = Cytochrome P450 2C19 (Homo sapiens, UniProt P33261); test: Cytochrome panel assay with activity outcomes. Panel member name: p450-cyp2c19 Compounds with AC50 equal or less than 10 uM are considered active; assay type: functional; details: read-out: AC50
[14] = control 3'UTR Renilla luciferase suppression, dose response, counter-screen for Shn3 inhibitor project, cell-based, Clone20-Shn3RL, cherry-picked (AID 624133); assay type: functional
Aspartyl aminopeptidase [15] = target: T1, Aspartyl aminopeptidase
Procathepsin L [16] = target: T2, Procathepsin L
Estrogen receptor = target: T5, Estrogen receptor (Homo sapiens, UniProt P03372);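 further: potency for inhibiting coactivator peptide recruitment to the receptor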
T5 sequence (P03372 whole entry): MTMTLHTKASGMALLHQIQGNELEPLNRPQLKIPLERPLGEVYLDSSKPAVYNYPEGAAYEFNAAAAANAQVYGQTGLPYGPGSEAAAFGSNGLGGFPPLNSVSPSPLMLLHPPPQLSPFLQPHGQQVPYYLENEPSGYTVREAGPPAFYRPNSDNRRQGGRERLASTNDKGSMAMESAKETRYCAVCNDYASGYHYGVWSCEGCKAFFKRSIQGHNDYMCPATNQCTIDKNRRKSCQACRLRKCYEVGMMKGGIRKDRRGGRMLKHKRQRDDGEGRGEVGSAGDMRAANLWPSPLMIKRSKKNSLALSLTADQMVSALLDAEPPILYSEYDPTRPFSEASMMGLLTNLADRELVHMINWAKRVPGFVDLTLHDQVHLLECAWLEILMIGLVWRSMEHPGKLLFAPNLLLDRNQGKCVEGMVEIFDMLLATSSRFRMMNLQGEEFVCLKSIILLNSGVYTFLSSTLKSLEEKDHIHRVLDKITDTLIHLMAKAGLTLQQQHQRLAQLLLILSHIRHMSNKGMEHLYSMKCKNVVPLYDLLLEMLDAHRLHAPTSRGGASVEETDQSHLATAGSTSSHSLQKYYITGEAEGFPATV

T2 sequence (P07711 whole entry): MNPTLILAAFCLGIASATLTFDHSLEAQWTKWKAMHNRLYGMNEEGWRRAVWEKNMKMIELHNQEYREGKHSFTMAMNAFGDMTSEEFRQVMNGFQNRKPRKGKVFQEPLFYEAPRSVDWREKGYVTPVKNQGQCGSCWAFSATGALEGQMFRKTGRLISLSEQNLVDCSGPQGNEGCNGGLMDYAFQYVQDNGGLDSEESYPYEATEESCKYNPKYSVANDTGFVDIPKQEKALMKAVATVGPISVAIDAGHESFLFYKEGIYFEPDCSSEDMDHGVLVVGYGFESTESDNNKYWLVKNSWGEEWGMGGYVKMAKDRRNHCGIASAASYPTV
Chain of Cytochrome P450 2D6 (P10635 whole entry): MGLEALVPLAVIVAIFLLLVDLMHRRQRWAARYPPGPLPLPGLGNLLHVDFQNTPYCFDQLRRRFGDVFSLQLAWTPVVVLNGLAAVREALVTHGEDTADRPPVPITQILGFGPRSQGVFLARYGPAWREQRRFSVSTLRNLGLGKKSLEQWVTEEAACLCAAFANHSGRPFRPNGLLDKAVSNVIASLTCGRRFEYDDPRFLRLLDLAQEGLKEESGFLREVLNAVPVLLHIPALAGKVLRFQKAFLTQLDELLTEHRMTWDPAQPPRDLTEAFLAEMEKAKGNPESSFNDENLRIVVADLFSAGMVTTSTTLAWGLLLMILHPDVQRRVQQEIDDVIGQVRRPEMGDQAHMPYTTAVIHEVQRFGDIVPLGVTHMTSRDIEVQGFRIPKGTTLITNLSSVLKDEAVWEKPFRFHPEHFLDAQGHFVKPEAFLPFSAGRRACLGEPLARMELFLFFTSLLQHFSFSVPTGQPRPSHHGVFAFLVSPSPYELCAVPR
Chain of Cytochrome P450 2C9 (P11712 whole entry): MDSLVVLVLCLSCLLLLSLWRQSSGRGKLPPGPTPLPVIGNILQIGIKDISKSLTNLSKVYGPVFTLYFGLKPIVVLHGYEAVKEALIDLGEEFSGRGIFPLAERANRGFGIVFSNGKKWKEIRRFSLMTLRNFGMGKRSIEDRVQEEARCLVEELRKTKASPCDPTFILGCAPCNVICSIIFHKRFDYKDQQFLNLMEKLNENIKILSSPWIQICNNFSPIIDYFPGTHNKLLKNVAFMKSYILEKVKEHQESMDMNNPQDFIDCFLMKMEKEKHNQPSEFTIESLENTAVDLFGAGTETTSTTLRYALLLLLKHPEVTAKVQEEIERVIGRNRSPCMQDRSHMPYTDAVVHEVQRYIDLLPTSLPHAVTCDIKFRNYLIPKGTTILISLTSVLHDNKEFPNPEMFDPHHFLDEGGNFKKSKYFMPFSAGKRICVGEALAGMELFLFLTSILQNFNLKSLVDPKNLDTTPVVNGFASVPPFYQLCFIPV
Chain of Cytochrome P450 3A4 (P08684 whole entry): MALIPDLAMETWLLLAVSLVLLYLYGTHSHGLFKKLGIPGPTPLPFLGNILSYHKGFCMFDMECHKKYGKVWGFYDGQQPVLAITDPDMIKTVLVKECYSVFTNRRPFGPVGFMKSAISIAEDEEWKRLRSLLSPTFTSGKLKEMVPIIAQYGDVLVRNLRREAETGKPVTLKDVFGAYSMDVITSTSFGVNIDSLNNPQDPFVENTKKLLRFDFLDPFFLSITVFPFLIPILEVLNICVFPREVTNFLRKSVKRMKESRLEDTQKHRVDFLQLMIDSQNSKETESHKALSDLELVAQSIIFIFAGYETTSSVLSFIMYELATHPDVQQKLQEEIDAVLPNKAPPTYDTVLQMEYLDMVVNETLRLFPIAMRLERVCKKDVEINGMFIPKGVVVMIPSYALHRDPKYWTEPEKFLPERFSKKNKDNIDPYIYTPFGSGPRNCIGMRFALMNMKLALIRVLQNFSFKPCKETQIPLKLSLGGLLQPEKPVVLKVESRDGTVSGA
Chain of Cytochrome P450 2C19 (P33261 whole entry): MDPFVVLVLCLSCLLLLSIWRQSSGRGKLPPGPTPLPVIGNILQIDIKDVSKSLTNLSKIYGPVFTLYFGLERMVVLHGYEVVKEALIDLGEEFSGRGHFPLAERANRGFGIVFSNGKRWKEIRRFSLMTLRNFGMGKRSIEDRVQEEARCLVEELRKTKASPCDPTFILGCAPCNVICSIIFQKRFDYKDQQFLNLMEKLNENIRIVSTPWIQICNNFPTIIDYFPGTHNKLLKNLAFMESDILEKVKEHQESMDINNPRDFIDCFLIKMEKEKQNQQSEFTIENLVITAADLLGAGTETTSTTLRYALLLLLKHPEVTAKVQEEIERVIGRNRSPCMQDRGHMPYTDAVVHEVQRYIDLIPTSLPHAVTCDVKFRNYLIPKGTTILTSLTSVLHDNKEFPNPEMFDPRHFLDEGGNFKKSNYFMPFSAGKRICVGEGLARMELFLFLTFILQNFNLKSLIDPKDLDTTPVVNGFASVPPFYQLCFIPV

## O=C(NCc1cccs1)C(=O)NCC(c1ccco1)N1CCN(c2ccc(F)cc2)CC1 (configuration not stated)
[1]
  EC50: > 50 µM (active)

## Cc1cc(C(=O)COC(=O)c2ccc[nH]c2=O)c(C)n1-c1ccc(Br)cc1
Aspartyl aminopeptidase [2]
  IC50: > 73.5 µM (not active)
Procathepsin L [3]
  IC50: > 59.6 µM (not active)
Leucine aminopeptidase
  IC50: 2.74 µM (active)

## COc1ccc(CCN2CCC(Nc3nc4ccccc4n3Cc3ccc(F)cc3)CC2)cc1 [ASTEMIZOLE]
[4]
  EC50: 5.87 µM (active)
[5]
  EC50: 9.34 µM (active)
[6]
  EC50: 3.78 µM (active)
Cytochrome P450 2D6
  AC50: 7.94 µM (active)
Cytochrome P450 2C9
  AC50: inactive
[7]
  EC50: 12.4 µM (active)
[8]
  AC50: 12.6 µM (active)
[9]
  AC50: 3.03 µM (active)
[10]
  IC50: > 20 µM (inactive)
[11]
  EC50: 7.94 µM (active)
[12]
  EC50: 13.6 µM (active)
[13]
  EC50: > 60 µM (not active)
Cytochrome P450 3A4
  AC50: inactive
Cytochrome P450 2C19
  AC50: 7.94 µM (inconclusive)
[14]
  AC50: 19.7 µM (active)

## O=C(Nc1ccccc1Cl)Nn1cnnc1
Aspartyl aminopeptidase [15]
  IC50: 1.47 µM (active)
Procathepsin L [16]
  IC50: > 59.6 µM (not active)

## Cc1ccccc1Nc1nnc(SCC(=O)NC(=O)NCc2ccco2)s1
Leucine aminopeptidase
  IC50: 25.1 µM (active)
Estrogen receptor
  IC50: 17.3 µM (active)

## CC1CCc2sc(NC(=O)C3CC(Cl)=CCC3C(=O)O)c(C#N)c2C1 (configuration not stated)
Aspartyl aminopeptidase [2]
  IC50: > 73.5 µM (not active)
Procathepsin L [3]
  IC50: > 59.6 µM (not active)
Leucine aminopeptidase
  IC50: < 1 µM (active)

## CCCCOc1ccc(-c2nnn(CC(=O)Nc3ncc(CC(=O)OCC)s3)n2)cc1
[1]
  EC50: > 50 µM (active)
